The source of these data is patent US20210145764A1, “COMPOSITIONS OF CANNABIDIOL (CBD), AND/OR POLYPHENOLS, AND METHODS FOR THE PREVENTION AND/OR TREATMENT OF SKIN, MUSCLE, NERVE AND INFLAMMATORY DISORDERS, AND BIOLOGICAL FACTORS AND FUNCTIONS IN MAMMALS” (BRIGHAM YOUNG UNIVERSITY, priority 2019, published 2021).

The target of series [1] is T1, 5α-Reductase Enzyme (type 1 in skin) (Homo sapiens, UniProt P18405).
T1 sequence (P18405 1-259): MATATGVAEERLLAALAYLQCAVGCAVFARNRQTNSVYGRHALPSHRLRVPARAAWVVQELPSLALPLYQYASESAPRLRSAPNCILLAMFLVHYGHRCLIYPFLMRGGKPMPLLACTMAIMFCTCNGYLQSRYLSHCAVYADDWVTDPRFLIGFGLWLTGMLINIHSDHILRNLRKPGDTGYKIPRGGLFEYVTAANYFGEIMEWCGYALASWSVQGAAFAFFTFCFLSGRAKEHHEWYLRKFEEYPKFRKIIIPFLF
The conditions noted are these: cited from earlier work.

Series [2] addresses Estrogen Receptor Beta (β) (Homo sapiens, UniProt Q92731). Conditions: cited from earlier work; for Ki: read-out: Binds Estrogen Receptor Beta (β), Ki.
The target of series [3] is Estrogen Receptor Alpha (α) (Homo sapiens, UniProt P03372). The conditions noted are these: cited from earlier work; for Ki: read-out: Binds Estrogen Receptor Alpha (α), Ki.
Sequence of Estrogen Receptor Alpha (α) (P03372 whole entry): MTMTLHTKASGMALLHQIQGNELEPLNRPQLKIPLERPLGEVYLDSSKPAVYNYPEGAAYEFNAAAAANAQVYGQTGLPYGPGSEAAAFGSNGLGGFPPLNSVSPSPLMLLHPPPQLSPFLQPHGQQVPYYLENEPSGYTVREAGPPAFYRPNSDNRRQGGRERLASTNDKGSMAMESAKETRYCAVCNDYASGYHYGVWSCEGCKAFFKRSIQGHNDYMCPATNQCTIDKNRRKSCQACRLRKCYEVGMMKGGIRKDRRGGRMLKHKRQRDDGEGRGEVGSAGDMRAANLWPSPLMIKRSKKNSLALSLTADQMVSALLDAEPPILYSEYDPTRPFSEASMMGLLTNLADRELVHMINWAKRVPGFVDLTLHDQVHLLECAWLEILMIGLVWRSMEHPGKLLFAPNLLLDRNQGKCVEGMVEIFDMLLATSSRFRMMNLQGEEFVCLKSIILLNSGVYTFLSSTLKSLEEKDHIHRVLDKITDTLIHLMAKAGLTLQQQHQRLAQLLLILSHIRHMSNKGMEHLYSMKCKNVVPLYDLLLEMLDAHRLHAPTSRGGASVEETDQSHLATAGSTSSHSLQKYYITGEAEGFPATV
For series [4] the following is noted: cited from earlier work.
The next series has as its system Collagen. The conditions noted are these: cited from earlier work.
In the next series the test system is Elastin. Conditions: cited from earlier work.
In another series the test system is TIMP1. The conditions noted are these: cited from earlier work.
A further series has as its system Growth Factors. Conditions: cited from earlier work.
For a further series, the system named is Inflammatory Molecules. The conditions noted are these: cited from earlier work.
For series [5] the following is noted: drug delivery studies; cited from earlier work.
For series [6], the system named is full epidermal/dermal thickness human skin cultures. Put plainly: Histology (hematoxylin/eosin) of human skin cultures. Format: cell-based. The conditions noted are these: 0.3% CBD; 0.5% equol; combination; 40× magnification. The protocol:
FIG. 14 depicts photomicrographs (40× magnification) of full epidermal/dermal thickness human skin cultures. […] Standard bar=50 microns.
In human skin gene expression analysis full epidermal/dermal thickness human skin cultures were used.
The skin cultures were treated with: (a) transcutol vehicle; (b) 0.3% CBD; and (c) 0.5% equol and 0.3% CDB plus 0.5% equol.

The test system of series [7] is full thickness epidermal/dermal human skin cultures. Put plainly: MTT assay cell viability, full thickness skin cultures. Format: cell-based. An excerpt:
Testing CBD and equol at various concentration to determine tissue/cell viability as indicated on the y- and x-axis and figure labels for subsequent human skin gene analysis. Triton X-100 treatment (cytotoxic control). Note: The MTT assay is a colorimetric assay, which has been validated for measuring cell metabolic activity. It is based on the ability of nicotinamide adenine dinucleotide phosphate (NADPH)-dependent cellular oxidoreductase enzymes to reduce the tetrazolium dye MTT to its insoluble formazan, which has a purple color. The absorbance of this colored solution can be quantified by measuring at a certain wavelength (usually between 500 and 600 nm) by a spectrophotometer. The MTT method is one of the most widely used methods to analyze cell proliferation and viability in human skin cells (Triglia et al., 1991).
(In general: Tetrazolium assays rely on reduction of a dye to a coloured formazan, in cell work by metabolically active cells.)

The subject of series [8] is dermal layer (only) of the human skin cultures. Put plainly: MTT assay viability, dermal layer (only). Format: cell-based. From the text:
Testing CBD and equol at various concentration to determine tissue/cell viability as indicated on the y- and x-axis and figure labels for subsequent human skin gene analysis. Triton X-100 treatment (cytotoxic control).

The target of series [9] is T2, Estrogen Related Receptor gamma (γ) (Homo sapiens, UniProt P62508).
T2 sequence (P62508 1-458): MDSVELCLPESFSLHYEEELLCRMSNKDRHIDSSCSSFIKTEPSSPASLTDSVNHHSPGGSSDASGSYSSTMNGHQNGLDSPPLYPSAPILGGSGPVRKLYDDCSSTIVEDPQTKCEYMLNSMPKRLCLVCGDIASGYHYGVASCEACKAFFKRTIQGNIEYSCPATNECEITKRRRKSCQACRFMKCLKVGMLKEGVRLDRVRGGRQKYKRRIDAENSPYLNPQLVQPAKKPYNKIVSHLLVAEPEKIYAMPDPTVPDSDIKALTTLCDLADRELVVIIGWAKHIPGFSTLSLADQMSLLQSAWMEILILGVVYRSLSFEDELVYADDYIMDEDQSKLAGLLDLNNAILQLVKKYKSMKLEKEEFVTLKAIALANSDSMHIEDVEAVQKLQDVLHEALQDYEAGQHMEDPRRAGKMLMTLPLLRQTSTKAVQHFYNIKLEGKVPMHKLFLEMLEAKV
Conditions: cited from earlier work.

For series [10] the following is noted: single topical dose, human skin; cited from earlier work.
A further series has as its system human skin biomarkers. Conditions: cited from earlier work.
The conditions of series [11]: cited from earlier work. This is another data set of the same source.
For series [12] the following is noted: 12 weeks; Equol alone at 0.3%; cited from earlier work.
For another series, the system named is MMPs. Conditions: cited from earlier work.
The conditions of series [13]: in vivo; cited from earlier work.
The next series relates to Elastase. Conditions: cited from earlier work.
The target in a further series is T3, Nrf2 (Homo sapiens, UniProt Q16236).
T3 sequence (Q16236 1-605): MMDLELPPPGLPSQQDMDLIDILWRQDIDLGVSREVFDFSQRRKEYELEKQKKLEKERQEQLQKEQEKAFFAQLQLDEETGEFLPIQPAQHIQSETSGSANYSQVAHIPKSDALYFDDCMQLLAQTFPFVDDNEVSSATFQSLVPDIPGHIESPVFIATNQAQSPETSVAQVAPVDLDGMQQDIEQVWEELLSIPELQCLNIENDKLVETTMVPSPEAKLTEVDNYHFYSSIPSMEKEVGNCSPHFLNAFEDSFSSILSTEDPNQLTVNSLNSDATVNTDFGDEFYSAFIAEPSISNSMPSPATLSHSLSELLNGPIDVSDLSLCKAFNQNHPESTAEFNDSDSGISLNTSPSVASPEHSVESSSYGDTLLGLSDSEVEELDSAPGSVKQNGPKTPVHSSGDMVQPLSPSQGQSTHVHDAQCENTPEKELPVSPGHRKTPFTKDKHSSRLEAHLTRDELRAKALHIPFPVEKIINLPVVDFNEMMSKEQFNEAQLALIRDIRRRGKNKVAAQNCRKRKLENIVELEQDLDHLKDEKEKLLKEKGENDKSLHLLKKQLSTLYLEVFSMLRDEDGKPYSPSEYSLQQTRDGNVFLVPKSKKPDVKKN
Conditions: cited from earlier work.

A further series concerns NFkappB. Conditions: cited from earlier work.
For the next series, the system named is AP-1. Conditions: same concentrations; cited from earlier work.
The conditions of series [14]: cited from earlier work. This is another data set of the same source.

The structures appear in SMILES notation.

Sequence of Estrogen Receptor Beta (β) (Q92731 whole entry, species assumed): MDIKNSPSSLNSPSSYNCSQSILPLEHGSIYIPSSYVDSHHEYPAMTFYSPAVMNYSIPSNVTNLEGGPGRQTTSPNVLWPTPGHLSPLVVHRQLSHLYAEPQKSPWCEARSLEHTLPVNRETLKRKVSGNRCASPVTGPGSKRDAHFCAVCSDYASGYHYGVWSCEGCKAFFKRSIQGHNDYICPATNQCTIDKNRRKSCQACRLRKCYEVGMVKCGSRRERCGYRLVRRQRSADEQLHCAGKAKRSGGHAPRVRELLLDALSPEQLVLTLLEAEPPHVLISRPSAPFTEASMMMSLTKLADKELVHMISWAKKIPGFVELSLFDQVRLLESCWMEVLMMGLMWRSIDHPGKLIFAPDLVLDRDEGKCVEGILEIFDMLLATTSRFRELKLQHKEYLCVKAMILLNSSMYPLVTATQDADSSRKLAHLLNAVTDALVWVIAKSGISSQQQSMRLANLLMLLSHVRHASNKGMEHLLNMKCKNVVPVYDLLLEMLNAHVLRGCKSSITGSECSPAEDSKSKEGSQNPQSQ

Usually Ki stands for the dissociation constant of the complex between target and ligand, obtained from inhibition or displacement. Take `Oc1ccc([C@@H]2COc3cc(O)ccc3C2)cc1` [R-Equol, R-equol]: in series [1], the “Inhibits 5α-Reductase Enzyme (type 1 in skin)” value (from here on “Inhibits 5α-Reductase Enzyme”) is recorded as “Yes”. Also, in series [2], the “affinity for ERβ” value is given as “weak affinity” and the Ki was 0.0154 µM. In series [3], the “affinity for ER alpha” value is “weak affinity” and the Ki is 0.0274 µM. For the same compound, the “Oral Metabolism in Humans (pharmacokinetics compared to each other)” value in [4] is “Similar”. The “Stimulates Collagen” value in the series on Collagen is “Yes”. In addition, in the series on Elastin, the “Stimulates Elastin” value is given as “Yes”. The “Stimulates TIMPI” value in the series with TIMP1 is reported as “No, or at very low”. Moreover, in the series with Growth Factors, the “Stimulates Growth Factors” value is “Yes, to high levels”. For the same compound, the “Inhibits Inflammatory Molecules” value in the series on Inflammatory Molecules is “Yes, high inhibition”. Also, the “more stable isomer, R-equol vs. S-equol” value in series [5] is listed as “more stable isomer”.

As for `Oc1ccc([C@H]2COc3cc(O)ccc3C2)cc1` (racemic) [Equol, equol], the “epidermal and dermal components and epidermal/dermal borders (histology)” value in series [6] was “intact and healthy”. The “relative percent cell viability, full thickness cultures (MTT)” value in series [7] (human) is on record as “around 100%”. Besides, in series [8] (human), the “relative percent cell viability, dermal layer only (MTT)” value is “around 100%”. Besides, the “transcriptional activity of ERR γ” value in series [9] was “enhanced”. In addition, in [10], the “skin penetration profile, peak time” value is reported as “around 8 hours” and the “sustained release after the initial application” value is “up to 28 hours”. Further, the “number of human skin biomarkers/genes significantly altered” value in the series on human skin biomarkers was 39. For the same compound, the “circulates in the free or unbound form in plasma” value in series [11] is “approximately 50%”. Besides, in [12], the “Even Skin Tone, Self-Assessment Questionnaire efficacy” value is on record as 70%; the “Frown Lines/Wrinkles, Self-Assessment Questionnaire efficacy” value is on record as 72%; the “Hydration, Self-Assessment Questionnaire efficacy” value was 71%; the “Pore Size, Self-Assessment Questionnaire efficacy” value is on record as 51%. In series [12], the “Radiance/Brightness, Self-Assessment Questionnaire efficacy” value is given as 73%; the “Skin Firmness, Self-Assessment Questionnaire efficacy” value is 77%; the “Smoothness, Self-Assessment Questionnaire efficacy” value is recorded as 62%; the “Spots/Discoloration, Self-Assessment Questionnaire efficacy” value is given as 55%.

On to `Oc1ccc([C@H]2COc3cc(O)ccc3C2)cc1` [S-Equol, S-equol], for which, in [1], the “Inhibits 5α-Reductase Enzyme” value is “No”. In addition, the “binding to estrogen receptor beta relative to 17β-estradiol” value in [2] (as well as 17β-estradiol) is reported as “approximately ⅕”. The Ki in [2] is 0.0064 µM. In addition, in series [3], the “affinity for ER alpha” value is given as “low affinity” and the Ki was 0.0154 µM. The “Oral Metabolism in Humans (pharmacokinetics compared to each other)” value in series [4] is recorded as “Similar”. Also, the “Stimulates Collagen” value in the series with Collagen is on record as “Yes”. For the same compound, the “Stimulates Elastin” value in the series on Elastin is reported as “No”. For the same compound, the “Stimulates TIMPI” value in the series with TIMP1 is given as “Yes”. The “Inhibits MMPs” value in the series with MMPs was “Yes, to low levels of”. Further, the “Stimulates Growth Factors” value in the series on Growth Factors was “Yes, to low levels”. Besides, in the series with Inflammatory Molecules, the “Inhibits Inflammatory Molecules” value is recorded as “Yes, low inhibition”.

On to `O=c1c(-c2ccc(O)cc2)coc2cc(O)cc(O)c12` [genistein], for which the intestinal absorption levels in series [13] was 15-20%.

The IC50 is the point on the concentration scale where inhibition reaches its midpoint. Consider `Oc1ccc(C2COc3cc(O)ccc3C2)cc1` (racemic) [Racemic Equol, equol], for which the “Inhibits 5α-Reductase Enzyme” value in series [1] is “Yes”. In addition, the IC50 was 0.2 µM in [2] (read-out: Binds Estrogen Receptor Beta (β), IC50) and 1.5 µM in [3] (read-out: Binds Estrogen Receptor Alpha (α), IC50). In [9], the “Binds/Activates Estrogen Related Receptor gamma (γ)” value was “Yes”. Besides, the “Oral Metabolism in Humans (pharmacokinetics compared to each other)” value in [4] is “Similar”. In addition, the “Stimulates Collagen” value in the series with Collagen is given as “Yes”. In the series on Elastin, the “Stimulates Elastin” value is “Yes”. For the same compound, in the series on Elastase, the “Inhibits Elastase” value is “Yes”. The “Stimulates TIMPI” value with TIMP1 is on record as “Yes”. The “Inhibits MMPs” value with MMPs is “Yes, to moderate”. Also, the “Stimulates Growth Factors” value with Growth Factors is listed as “Yes, to moderate”. For the same compound, the “Binds Nrf2/activates other antioxidants” value on Nrf2 is given as “Yes”. Moreover, in the series with NFkappB, the “Inhibits NFkappB” value is “Yes, high inhibition”. In addition, the “Inhibits Inflammatory Molecules” value in the series on Inflammatory Molecules was “Yes, high inhibition”. For the same compound, the “TPA-induced activation of AP-1” value in the series with AP-1 is “dose-dependently attenuated”.

With `O=c1c(-c2ccc(O)cc2)coc2cc(O)ccc12` [daidzein, reference compound], the “transcriptional activity of ERR γ” value in series [9] is listed as “did not have this effect”. For the same compound, the “TPA-induced activation of AP-1” value in the series on AP-1 is given as “did not exert any effect”. For the same compound, in [13], the intestinal absorption levels was 30-40%.

Consider `CC1=C(/C=C/C(C)=C/C=C/C(C)=C/C=C/C=C(C)/C=C/C=C(C)/C=C/C2=C(C)C(=O)[C@@H](O)CC2(C)C)C(C)(C)C[C@H](O)C1=O` [astaxanthin, reference compound], for which, in the series with human skin biomarkers, the “number of human skin biomarkers/genes significantly altered” value is given as 6.

Regarding `CCCCCc1cc(O)c2c(c1)OC(C)(C)[C@@H]1CCC(C)=C[C@@H]21` [THC, tetrahydrocannabinol], the “solubility in most organic solvents” value in series [14] (organic solvents, particularly lipids and alcohols) is “good solubility”. The solubility in water entry in series [14] (water) is “low solubility”.

For `C=C(C)[C@@H]1CCC(C)=C[C@H]1c1c(O)cc(CCCCC)cc1O` [CBD, cannabidiol], the “epidermal and dermal components and epidermal/dermal borders (histology)” value in [6] is “intact and healthy”. Besides, the “relative percent cell viability, full thickness cultures (MTT)” value in series [7] (FIG. 15) is “around 100%”. In addition, the “relative percent cell viability, dermal layer only (MTT)” value in [8] (FIG. 16) is reported as “around 100%”.
